According to ChEMBL document CHEMBL3774304, “Novel morpholin-3-one fused quinazoline derivatives as EGFR tyrosine kinase inhibitors” (Bioorg Med Chem Lett, 2016):

What was measured:
[1] = biological target: T1, Epidermal growth factor receptor (Homo sapiens, UniProt P00533)
Target sequence in this assay (P00533 whole entry): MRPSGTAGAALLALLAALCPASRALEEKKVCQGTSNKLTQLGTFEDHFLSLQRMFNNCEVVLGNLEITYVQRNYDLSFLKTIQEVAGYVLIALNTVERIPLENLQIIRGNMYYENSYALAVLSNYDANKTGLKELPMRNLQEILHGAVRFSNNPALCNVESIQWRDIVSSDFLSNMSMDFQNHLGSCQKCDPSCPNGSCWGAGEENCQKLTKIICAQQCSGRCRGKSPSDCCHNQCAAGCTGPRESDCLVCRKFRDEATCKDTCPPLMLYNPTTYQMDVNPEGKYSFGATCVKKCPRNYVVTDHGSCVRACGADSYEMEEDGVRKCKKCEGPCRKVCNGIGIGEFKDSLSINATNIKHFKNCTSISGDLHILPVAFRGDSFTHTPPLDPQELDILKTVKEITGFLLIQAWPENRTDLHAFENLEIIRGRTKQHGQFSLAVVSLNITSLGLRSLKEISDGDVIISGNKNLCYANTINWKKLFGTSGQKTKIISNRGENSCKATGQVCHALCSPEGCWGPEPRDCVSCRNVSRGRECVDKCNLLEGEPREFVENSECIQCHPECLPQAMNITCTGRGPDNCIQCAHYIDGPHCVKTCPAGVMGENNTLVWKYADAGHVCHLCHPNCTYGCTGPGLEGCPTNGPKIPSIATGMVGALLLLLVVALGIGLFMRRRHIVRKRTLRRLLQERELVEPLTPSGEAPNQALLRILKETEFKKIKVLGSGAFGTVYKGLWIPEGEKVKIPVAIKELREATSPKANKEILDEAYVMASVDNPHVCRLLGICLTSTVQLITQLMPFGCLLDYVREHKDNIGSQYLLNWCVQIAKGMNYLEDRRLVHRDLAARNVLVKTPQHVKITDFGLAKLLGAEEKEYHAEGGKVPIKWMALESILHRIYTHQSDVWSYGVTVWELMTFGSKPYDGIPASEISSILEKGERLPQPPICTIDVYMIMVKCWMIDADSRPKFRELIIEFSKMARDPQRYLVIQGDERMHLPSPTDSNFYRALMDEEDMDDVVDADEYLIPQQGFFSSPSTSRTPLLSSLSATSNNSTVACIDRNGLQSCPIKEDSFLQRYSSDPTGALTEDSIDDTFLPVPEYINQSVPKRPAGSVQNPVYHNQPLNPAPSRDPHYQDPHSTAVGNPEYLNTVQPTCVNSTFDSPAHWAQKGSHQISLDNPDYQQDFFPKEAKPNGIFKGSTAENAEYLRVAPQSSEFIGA
Description: Inhibition of wildtype EGFR (unknown origin) preincubated for 30 mins followed by addition of 2x ATP-substrate mixture measured after 1 hr by Kinase Glo luminescent kinase assay

[2] = tested on: A549; assay: cells; format: functional, cell-based; details: Homo sapiens, A549, 48 h
Description: Antiproliferative activity against human A549 cells assessed as viable cells after 48 hrs by CCK8 assay

[3] = tested on: NCI-H358; assay: cells; format: functional, cell-based; details: Homo sapiens, NCI-H358, 48 h
Description: Antiproliferative activity against human NCI-H358 cells assessed as viable cells after 48 hrs by CCK8 assay

[4] = biological target: T1, Epidermal growth factor receptor; format: protein assay
Target sequence in this assay (P00533 25-1210 limits assumed, change not shown): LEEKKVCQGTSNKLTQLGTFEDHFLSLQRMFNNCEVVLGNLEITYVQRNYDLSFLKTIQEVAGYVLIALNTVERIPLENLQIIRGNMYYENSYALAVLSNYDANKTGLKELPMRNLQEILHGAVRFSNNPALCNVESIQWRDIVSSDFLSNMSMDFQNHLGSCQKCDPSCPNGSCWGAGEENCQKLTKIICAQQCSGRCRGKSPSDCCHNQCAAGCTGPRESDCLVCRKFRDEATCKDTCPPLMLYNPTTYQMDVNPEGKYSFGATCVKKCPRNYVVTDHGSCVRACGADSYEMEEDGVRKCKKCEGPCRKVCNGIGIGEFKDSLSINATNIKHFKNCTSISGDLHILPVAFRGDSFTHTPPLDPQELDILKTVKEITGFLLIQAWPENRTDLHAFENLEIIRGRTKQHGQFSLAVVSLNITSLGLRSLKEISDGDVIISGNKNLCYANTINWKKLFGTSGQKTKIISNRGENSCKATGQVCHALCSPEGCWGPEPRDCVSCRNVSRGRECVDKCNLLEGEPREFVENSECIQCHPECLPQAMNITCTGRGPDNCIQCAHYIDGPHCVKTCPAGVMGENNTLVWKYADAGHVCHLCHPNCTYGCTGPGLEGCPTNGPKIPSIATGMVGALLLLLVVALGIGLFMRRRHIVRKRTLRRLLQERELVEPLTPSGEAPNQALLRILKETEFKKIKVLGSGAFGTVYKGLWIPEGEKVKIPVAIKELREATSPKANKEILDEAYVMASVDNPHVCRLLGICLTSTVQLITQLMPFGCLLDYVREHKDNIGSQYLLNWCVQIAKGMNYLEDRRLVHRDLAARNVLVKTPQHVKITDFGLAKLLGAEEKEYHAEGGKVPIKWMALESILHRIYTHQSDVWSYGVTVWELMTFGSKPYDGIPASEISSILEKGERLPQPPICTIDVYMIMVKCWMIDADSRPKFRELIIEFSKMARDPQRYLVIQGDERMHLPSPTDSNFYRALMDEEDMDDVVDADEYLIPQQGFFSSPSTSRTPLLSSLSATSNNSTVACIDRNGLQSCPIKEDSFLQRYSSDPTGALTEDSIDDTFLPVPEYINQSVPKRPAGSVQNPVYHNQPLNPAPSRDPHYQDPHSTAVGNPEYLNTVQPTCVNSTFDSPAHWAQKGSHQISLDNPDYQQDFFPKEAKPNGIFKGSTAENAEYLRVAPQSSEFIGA
Description: Inhibition of EGFR-T790M/L858 mutant (unknown origin) preincubated for 30 mins followed by addition of 2x ATP-substrate mixture measured after 1 hr by Kinase Glo luminescent kinase assay

SMILES	IC50 [1] [µM]	further results
Cc1ccc(Nc2ncnc3cc4c(cc23)N(CCCN2CCOCC2)C(=O)CO4)cc1Cl	0.163	–
Cc1ccc(Nc2ncnc3cc4c(cc23)N(CCCN2CCOCC2)C(=O)CO4)cc1	0.594	–
O=C1COc2cc3ncnc(Nc4cccc(Cl)c4)c3cc2N1CCCN1CCOCC1	0.0631	–
O=C1COc2cc3ncnc(Nc4cccc(Br)c4)c3cc2N1CCCN1CCCCC1	0.099	–
O=C1COc2cc3ncnc(Nc4ccccc4)c3cc2N1CCCN1CCOCC1	0.519	–
O=C1COc2cc3ncnc(Nc4cccc(F)c4)c3cc2N1CCCN1CCOCC1	0.245	–
O=C1COc2cc3ncnc(Nc4ccc(Cl)cc4)c3cc2N1CCCN1CCOCC1	0.354	–
COc1ccc(Nc2ncnc3cc4c(cc23)N(CCCN2CCOCC2)C(=O)CO4)cc1OC	> 1	–
O=C1COc2cc3ncnc(Nc4ccc(F)c(Cl)c4)c3cc2N1CCCN1CCCCC1	0.138	–
COc1cccc(Nc2ncnc3cc4c(cc23)N(CCCN2CCOCC2)C(=O)CO4)c1	> 1	–
C#Cc1cccc(Nc2ncnc3cc4c(cc23)N(CCCN2CCCCC2)C(=O)CO4)c1	0.211	–
O=C1COc2cc3ncnc(Nc4cccc(C(F)(F)F)c4)c3cc2N1CCCN1CCOCC1	0.829	–
O=C1COc2cc3ncnc(Nc4ccc(Br)cc4)c3cc2N1CCCN1CCOCC1	0.824	–
Cc1cccc(Nc2ncnc3cc4c(cc23)N(CCCN2CCOCC2)C(=O)CO4)c1	0.187	–
O=C1COc2cc3ncnc(Nc4ccc(F)cc4)c3cc2N1CCCN1CCOCC1	0.434	–
O=C1COc2cc3ncnc(Nc4cccc(Br)c4)c3cc2N1CCCN1CCOCC1	0.0896	–
O=C1COc2cc3ncnc(Nc4ccc(F)c(Cl)c4)c3cc2N1CCCN1CCOCC1	0.0531	IC50 [2]: 7.51 µM; IC50 [3]: 13.5 µM; IC50 [4]: 0.336 µM
Cc1cccc(Nc2ncnc3cc4c(cc23)N(CCCN2CCCCC2)C(=O)CO4)c1	0.456	–
C#Cc1cccc(Nc2ncnc3cc4c(cc23)N(CCCN2CCOCC2)C(=O)CO4)c1	0.139	IC50 [2]: 5.58 µM; IC50 [3]: 13.5 µM; IC50 [4]: 0.88 µM
O=C1COc2cc3ncnc(Nc4cccc(Cl)c4)c3cc2N1CCCN1CCCCC1	0.116	–
